# Reference: patent US9242933B2 (AbbVie Deutschland GmbH & Co. KG, priority 2007, dated 2016)
# Molecular target: T1, human mGlu2 receptor (Homo sapiens, UniProt Q14416)
# T1 construct: expressed in transfected cells; host or cells: HEK293
# Test: FLIPR intracellular Ca2+ assay, potentiation of glutamate response in HEK293 clone expressing mGlu2 receptor, rGLAST and Galpha16
# Format: cell-based
# Conditions: 1 μM glutamate added ten minutes after test compound, HEK293 cells with human mGlu2, rGLAST, Galpha16, read-out: EC50 values of potentiation effect to glutamate
# Source text: The compounds of the present invention can be tested e.g. by evaluating intracellular Ca^2+ concentrations in cells permanently expressing human mGlu receptor, the rat glutamate transporter rGLAST and the Galpha16 subunit of the G-protein complex under standard conditions in a fluorometric imaging plate reader (FLIPR, Molecular Devices, Union City, Calif. 94587, USA) by measuring the response of the cells to a test compound in the absence of presence of glutamate. The FLIPR assay is a common functional assay to monitor native or recombinant Galphaq-coupled receptors, and native or recombinant receptors normally linked to other G-protein signalling cascades, which are coupled to calcium through co-expression of an alpha subunit of a promiscuous or chimeric G-protein. In the assay the increase of intracellular calcium is measured through a calcium-dependent fluorescent dye (e.g. Fluo-4 AM) in the FLIPR instrument.
# For the purpose of the present study, a cell line permanently expressing a human mGlu receptor, such as the mGlu2 receptor, the rat glutamate transporter rGLAST and the GalphaG16 may be generated by transfection as described in the examples. For selection of a suitable cell clone and also the subsequent measurements, the selected clone the cells will be plated on suitable multiwell plates in a suitable medium (e.g. DMEM Glutamax (GIBCO #21885-025)/10% dialyzed FCS). Cells may be selected by gentamycin treatment as described in the examples. Cells will then be loaded with a suitable Ca^2+ sensitive fluorescence dye, e.g. with 2 μM Fluo-4 AM (Molecular Probes, F14201). Cells will then be washed with a suitable buffer (e.g. HEPES) and the thus treated plates will be measured in a fluorometric imaging plate reader (e.g. FLIPR, Molecular Devices, Union City, Calif. 94587, USA).
# The compounds of the present invention were tested in the above-described FLIPR assay using the selected cell clone. Increased intracellular calcium levels were quantified following addition of test compound (agonism), as well as following addition of a submaximal concentration of glutamate (potentiation).
# For the determination of the effect of the test compound by itself (agonism) or by increasing the response to a submaximal concentration (e.g. 1 μM) of glutamate (potentiation), the resulting signal is determined by subtraction of the background fluorescence from the maximal fluorescent peak height of the respective response. In the FLIPR instrument the compound is given to the cell and its fluorescence response quantified by the FLIPR instrument (agonism). The concentration at which the compound exerts half its maximal effect is named the ‘effective concentration 50’ or ‘EC50’. The maximal effect induced by the test substance is normalized to the maximal effect exerted by 100 μM glutamate (set at 100%).
# After addition of the test compound to the plate, a submaximal concentration of glutamate (e.g. 1 μM glutamate) will be added. A potentiator enhances the response of the receptor to glutamate. The response to glutamate in the presence of test compound is quantified. The concentration at which the test compound is able to exert half its maximal potentiation effect to glutamate is named the ‘EC50’. The maximal response to the submaximal concentration of glutamate (e.g. 1 micromolar glutamate) in the presence of test compound is normalized to the maximal effect exerted by 100 micromolar glutamate (set at 100%). Least squares curve fitting with a four-parameter equation is then applied to the resulting dose-response curve to determine the resulting EC5O values (Graph Pad Prism).
# For the purpose of the present study, a cell line permanently expressing the human mGlu2 receptor, the rat glutamate transporter rGLAST and the alpha subunit of G16 was generated by transfection. […]
# T1 sequence (Q14416 19-872): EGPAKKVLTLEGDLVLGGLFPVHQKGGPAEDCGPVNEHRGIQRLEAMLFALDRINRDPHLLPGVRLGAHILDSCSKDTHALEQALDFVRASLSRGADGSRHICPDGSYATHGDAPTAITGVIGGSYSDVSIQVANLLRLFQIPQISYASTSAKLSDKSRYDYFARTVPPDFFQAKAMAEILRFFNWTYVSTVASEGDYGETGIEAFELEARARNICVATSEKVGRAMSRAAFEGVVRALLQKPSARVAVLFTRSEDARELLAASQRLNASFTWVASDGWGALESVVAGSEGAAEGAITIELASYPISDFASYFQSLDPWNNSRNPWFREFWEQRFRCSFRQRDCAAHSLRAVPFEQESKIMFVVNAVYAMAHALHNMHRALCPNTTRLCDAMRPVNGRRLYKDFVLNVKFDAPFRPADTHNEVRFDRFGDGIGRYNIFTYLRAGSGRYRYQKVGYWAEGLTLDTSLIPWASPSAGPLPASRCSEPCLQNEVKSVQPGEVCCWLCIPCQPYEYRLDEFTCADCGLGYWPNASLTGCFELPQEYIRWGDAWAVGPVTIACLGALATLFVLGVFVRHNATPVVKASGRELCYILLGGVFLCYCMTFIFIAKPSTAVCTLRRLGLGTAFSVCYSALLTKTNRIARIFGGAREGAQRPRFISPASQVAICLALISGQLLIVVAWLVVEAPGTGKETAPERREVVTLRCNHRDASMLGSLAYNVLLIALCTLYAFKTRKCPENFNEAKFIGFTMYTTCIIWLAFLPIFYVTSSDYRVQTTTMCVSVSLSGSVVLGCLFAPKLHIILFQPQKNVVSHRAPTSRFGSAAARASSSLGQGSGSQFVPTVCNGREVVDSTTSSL
row,EC50,SMILES
1,< 1000 nM,"CCCN1Cc2cc(OCc3c[nH]nc3-c3cccc(F)c3)ccc2C1=O [Example 536, 5-[3-(3-Fluorophenyl)-1H-pyrazol-4-ylmethoxy]-2-propyl-2,3-dihydro-isoindol-1-one]"
2,< 1000 nM,CCCN1Cc2cc(NCc3c[nH]nc3-c3cccc(C(F)(F)F)c3)ccc2C1=O [Example 578]
3,1000 to 10000 nM,"CCCC(=O)c1ccc(NCc2n[nH]cc2-c2ccc(Cl)cc2)cc1 [Example 518, 1-(4-{[4-(4-Chloro-phenyl)-1H-pyrazol-3-ylmethyl]-amino}-phenyl)-butan-1-one]"
4,1000 to 10000 nM,"CCCC(=O)c1ccc(NCc2c[nH]nc2C(C)C)cc1 [Example 477, 1-{4-[(3-Isopropyl-1H-pyrazol-4-ylmethyl)-amino]-phenyl}-butan-1-one]"
5,1000 to 10000 nM,"COC(=O)c1ccc(NCc2c[nH]nc2-c2ccc(Cl)cc2)cc1 [Example 443, 4-{[3-(4-Chloro-phenyl)-1H-pyrazol-4-ylmethyl]-amino}-benzoic acid methyl ester]"
6,1000 to 10000 nM,"CCCC(=O)c1ccc(NCc2c(C)nn(C(C)(C)C)c2C)cc1 [Example 58, 1-{4-[(1-tert-Butyl-3,5-dimethyl-1H-pyrazol-4-ylmethyl)amino]phenyl)butan-1-one]"
7,1000 to 10000 nM,CCCC(=O)c1ccc(NCc2cnn(CCC)c2C)cc1 [Example 71]
8,1000 to 10000 nM,"CCCC(=O)c1ccc(NCc2c(C)n[nH]c2C)cc1 [Example 224, 1-{4-[(3,5-Dimethyl-1H-pyrazol-4-ylmethyl)-amino]-phenyl}-butan-1-one]"
9,1000 to 10000 nM,"CCCC(=O)c1ccc(NCc2c(C)noc2C)cc1 [Example 227, 1-{4-[(3,5-Dimethyl-isoxazol-4-ylmethyl)-amino]-phenyl}-butan-1-one]"
10,< 1000 nM,"CCCC(=O)c1ccc(NCc2n[nH]cc2-c2ccc(C(F)(F)F)cc2)cc1 [Example 517, 1-(4-{[4-(4-Trifluoromethyl-phenyl)-1H-pyrazol-3-ylmethyl]-amino}-phenyl)-butan-1-one]"
11,1000 to 10000 nM,"CCCC(=O)c1ccc(NCc2csc(-c3ccccc3)n2)cc1 [Example 46, 1-{4-[(2-Phenylthiazol-4-ylmethyl)amino]phenyl}butan-1-one]"
12,< 1000 nM,"CCCC(=O)c1ccc(NCc2c[nH]nc2-c2ccc(F)cc2)cc1 [Example 508, 1-(4-{[3-(4-Fluorophenyl)-1H-pyrazol-4-ylmethyl]-amino}-phenyl)-butan-1-one]"
13,< 1000 nM,"CCCC(=O)c1ccc(NCc2n[nH]cc2-c2ccc(OC)cc2)cc1 [Example 513, 1-(4-{[4-(4-Methoxy-phenyl)-1H-pyrazol-3-ylmethyl]-amino}-phenyl)-butan-1-one]"
14,< 1000 nM,"O=C1c2ccc(OCc3c[nH]nc3-c3ccc(C(F)(F)F)cc3)cc2CN1CC1CCCCC1 [Example 586, 2-Cyclohexylmethyl-5-[3-(4-trifluoromethyl-phenyl)-1H-pyrazol-4-ylmethoxy]-2,3-dihydro-isoindol-1-one]"
15,1000 to 10000 nM,"CCC(CC)Oc1cccc(NCc2c[nH]nc2-c2ccc(C(F)(F)F)cc2)c1 [Example 380, [3-(1-Ethyl-propoxy)-phenyl]-[3-(4-trifluoromethyl-phenyl)-1H-pyrazol-4-ylmethyl]-amine]"
16,< 1000 nM,"O=C1c2ccc(OCc3c[nH]nc3-c3cccc(F)c3)cc2CN1CCC(F)(F)F [Example 541, 5-[3-(3-Fluorophenyl)-1H-pyrazol-4-ylmethoxy]-2-(3,3,3-trifluoro-propyl)-2,3-dihydro-isoindol-1-one]"
17,1000 to 10000 nM,"CCCC(=O)c1ccc(NCc2ccc(Cl)nc2Cl)cc1 [Example 307, 1-{4-[(2,6-Dichloro-pyridin-3-ylmethyl)-amino]-phenyl}-butan-1-one]"
18,1000 to 10000 nM,"CCCC(=O)c1ccc(NCc2sc(C)nc2-c2ccccc2)cc1 [Example 233, 1-{4-[(2-Methyl-4-phenyl-thiazol-5-ylmethyl)-amino]-phenyl}-butan-1-one]"
19,1000 to 10000 nM,"CS(=O)(=O)c1ccc(NCc2c[nH]nc2-c2ccc(C(F)(F)F)cc2)cc1 [Example 399, (4-Methanesulfonyl-phenyl)-[3-(4-trifluoromethyl-phenyl)-1H-pyrazol-4-ylmethyl]-amine]"
20,< 1000 nM,"CCCN1Cc2cc(OCc3c[nH]nc3-c3ccccc3)ccc2C1=O [Example 537, 5-(3-Phenyl-1H-pyrazol-4-ylmethoxy)-2-propyl-2,3-dihydro-isoindol-1-one]"
21,1000 to 10000 nM,CCCN1Cc2cc(NCc3n[nH]cc3-c3cccc(C(F)(F)F)c3)ccc2C1=O [Example 582]
22,1000 to 10000 nM,"O=C1c2ccc(OCc3c[nH]nc3-c3ccc(C(F)(F)F)cc3)cc2CN1c1ccccc1 [Example 589, 2-Phenyl-5-[3-(4-trifluoromethyl-phenyl)-1H-pyrazol-4-ylmethoxy]-2,3-dihydro-isoindol-1-one]"
23,< 1000 nM,"O=C1c2ccc(OCc3c[nH]nc3-c3ccc(F)cc3)cc2CN1CCC(F)(F)F [Example 540, 5-[3-(4-Fluorophenyl)-1H-pyrazol-4-ylmethoxy]-2-(3,3,3-trifluoro-propyl)-2,3-dihydro-isoindol-1-one]"
24,< 1000 nM,"CCN1Cc2cc(OCc3c[nH]nc3-c3ccc(Cl)cc3)ccc2C1=O [Example 562, 5-[3-(4-Chloro-phenyl)-1H-pyrazol-4-ylmethoxy]-2-ethyl-2,3-dihydro-isoindol-1-one]"
25,1000 to 10000 nM,"FC(F)(F)c1ccc(-c2n[nH]cc2CNc2ccc(Cl)cn2)cc1 [Example 340, (5-Chloro-pyridin-2-yl)-[3-(4-trifluoromethyl-phenyl)-1H-pyrazol-4-ylmethyl]-amine]"
26,1000 to 10000 nM,"Cc1cc(=O)c2ccc(NCc3c[nH]nc3-c3ccc(C(F)(F)F)cc3)cc2o1 [Example 400, 2-Methyl-7-{[3-(4-trifluoromethyl-phenyl)-1H-pyrazol-4-ylmethyl]-amino}-chromen-4-one]"
27,1000 to 10000 nM,"CCCC(=O)c1ccc(NCc2cnn(CC)c2C)cc1 [Example 55, 1-{4-[(1-Ethyl-5-methyl-1H-pyrazol-4-ylmethyl)amino]phenyl}butan-1-one]"
28,1000 to 10000 nM,"CCCC(=O)c1ccc(NCc2cnn(C(C)C)c2)cc1 [Example 75, 1-{4-[(1-Isopropyl-1H-pyrazol-4-ylmethyl)amino]phenyl}butan-1-one]"
29,1000 to 10000 nM,"CCCC(=O)c1ccc(NCc2nc(-c3cccs3)oc2C)cc1 [Example 245, 1-{4-[(5-Methyl-2-thiophen-2-yl-oxazol-4-ylmethyl)-amino]-phenyl}-butan-1-one]"
30,1000 to 10000 nM,"CCCC(=O)c1ccc(N(Cc2cccnc2)S(=O)(=O)CC(F)(F)F)cc1 [Example 383, 2,2,2-Trifluoro-ethanesulfonic acid (4-butyryl-phenyl)-pyridin-3-ylmethyl-amide]"

row,SMILES,EC50
1,"O=C1c2ccc(OCc3c[nH]nc3-c3cccc(C(F)(F)F)c3)cc2CN1CCBr [Example 565, 2-(2-Bromo-ethyl)-5-[3-(3-trifluoromethyl-phenyl)-1H-pyrazol-4-ylmethoxy]-2,3-dihydro-isoindol-1-one]",< 1000 nM
2,"CCCC(C)Oc1cccc(N(Cc2c[nH]nc2-c2ccc(C(F)(F)F)cc2)S(=O)(=O)CC(F)(F)F)c1 (stereo not drawn) [Example 455, 2,2,2-Trifluoro-ethanesulfonic acid [3-(1-methyl-butoxy)-phenyl]-[3-(4-trifluoromethyl-phenyl)-1H-pyrazol-4-ylmethyl]-amide]",1000 to 10000 nM
3,"CC(C)COc1ccc(NCc2c[nH]nc2C(C)(C)C)cc1 [Example 286, (3-tert-Butyl-1H-pyrazol-4-ylmethyl)-(4-isobutoxy-phenyl)-amine]",1000 to 10000 nM
